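The compound was tested at five concentrations on cells cultured in 96-well plates, with a 48-hour exposure period. At the GI50, growth is halved. TGI: concentration producing complete growth inhibition.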 Where only a bound is given, the exact number is not on record here.

Holding throughout (test): NCI anticancer screen, dose series, 48 h
In test [1] the test system is EKVX NSCLC.
The test system of test [2] is SN12C renal.
Test [3] deals with SNB-19 CNS.
For test [4], the system named is NCI-H460 lung.
Test [5] relates to 786-0 renal.
In test [6] the test system is ACHN renal.
Test [7] deals with HCT-116 colon.
Test [8] deals with NCI-H23 lung.
In test [9] the test system is HOP-62 NSCLC.
Test [10] deals with HCT-15 colon.

Take `COC(=O)CCC(=O)N1C/C(=C\c2ccccc2)C(=O)/C(=C/c2ccccc2)C1`: the TGI in test [1] amounted to 14.3 µM; in test [2], 3.44 µM; in test [3], 14.5 µM; in test [4], 10.8 µM; in test [5] it was 3.75 µM; in [6], 3.8 µM. Besides, the TGI was determined as 1.42 µM in [7], 4.35 µM in [8], 28.7 µM in test [9] and 2.43 µM in test [10].
As for `COc1cc(-n2cc(-c3ccccc3)[nH]c2=O)cc(OC)c1OC`, the GI50 was 25.4 µM in test [1]; 47.6 µM in [2]; 30.9 µM in test [3]; 52.2 µM in test [4]; 23.7 µM in test [5]; 45.5 µM in test [6]. Moreover, the GI50 in [7] was 58.1 µM; in test [8], above 100 µM; in [9], 39.1 µM; in test [10], 85.2 µM. Moreover, the TGI is above 100 µM in [1]; above 100 µM in test [2]; above 100 µM in [3]; above 100 µM in test [4]; 91.1 µM in test [5]; above 100 µM in [6]. The TGI in test [7], in test [8], in [9] and in [10] was above 100 µM each time.
For the molecule `CC(C)(C)C1CCC2c3c([nH]c4ncccc34)C3C(=O)N(c4ccccc4)C(=O)C3C2C1` (centres undefined), the TGI in [1], in test [2], in test [3], in test [4], in [5] and in test [6] was above 100 µM throughout. The TGI in [7], in test [8], in [9] and in test [10] was above 100 µM each time.
On to `Cc1ccc(S(=O)(=O)NC(=O)NCCc2ccccc2)cc1`, for which the TGI in [1], in test [2], in test [3], in test [4], in test [5] and in test [6] was above 100 µM each time. Further, the TGI in test [7], in [8] and in test [9] was above 100 µM in each case.
As to `COc1cccc(/C=C/c2nc3c(cnn3-c3ccccc3)c(=O)[nH]2)c1`, the GI50 in test [1] was 65.8 µM; in [2], above 100 µM; in [3], above 51.9 µM; in test [4] it was above 81.8 µM; in test [5], 12.4 µM; in test [6], 28.1 µM. For the same molecule, the GI50 in [7] was 12 µM; in test [8], above 100 µM; in test [9] it was 7.19 µM; in [10], above 100 µM. Also, the TGI in test [1], in test [2], in test [3], in [4], in test [5] and in test [6] was above 100 µM each time. In addition, the TGI in [7], in test [8], in test [9] and in [10] was above 100 µM throughout.
Turning to `N#Cc1c(-c2ccccc2)cc(-c2ccc(N)cc2)[nH]c1=O`, the TGI in [1], in test [2], in test [3], in [4], in test [5] and in test [6] was above 100 µM each time. For the same molecule, the TGI in [7], in test [8], in [9] and in test [10] was above 100 µM each time.
Turning to `CCOC(=O)C1C=C2O[C@@H]3OC4(CCCCC4)O[C@@H]3C2C2C(=O)CCC(=O)[C@@]12C(=O)OC` (some centres undefined), the TGI in test [1], in [2], in test [3], in [4], in test [5] and in test [6] was above 100 µM in each case. The TGI in test [7], in [8], in test [9] and in test [10] was above 100 µM throughout.
Regarding `O=[N+]([O-])c1cccc(-c2nc(-c3ccc(Cl)cc3Cl)cn2-c2ccccc2)c1`, the GI50 in test [1] was 0.56 µM; in test [2] it was 1.19 µM; in test [3], 2.55 µM; in test [4], 0.598 µM; in test [5], 0.995 µM; in test [6], 1.3 µM. The GI50 is 0.855 µM in test [7], 5.15 µM in [8], 1.39 µM in test [9] and 1.13 µM in [10]. Also, the TGI in test [1] is 2.5 µM; in test [2], above 7.91 µM; in test [3], above 18.2 µM; in test [4], 1.12 µM; in [5] it was 2.88 µM; in test [6] it was 5.42 µM. Besides, the TGI is 2.02 µM in [7], above 27.1 µM in test [8], 7.56 µM in [9] and above 23.2 µM in [10].
Take `O=[P+](O)c1ccccn1`: the TGI in test [1], in [2], in test [3], in test [4], in test [5] and in [6] was above 100 µM in each case. Further, the TGI in [7], in test [8], in [9] and in test [10] was above 100 µM each time.
With `CCC/C=C\C=C\C1(NS(=O)(=O)c2ccc(C)cc2)CCC(C(C)(C)C)CC1` (centres undefined), the TGI in [1] is 62.6 µM; in test [2], 23.5 µM; in [3], above 100 µM; in [4] it was 36.2 µM; in test [5], 29.9 µM; in test [6], 53.7 µM. The TGI in test [7] amounted to 38.3 µM; in test [8], 55 µM; in [9], 56.7 µM; in test [10] it was 43.8 µM.
Turning to `N#CC1=C(N)NC(=S)NC1c1ccc(-c2ccc(-c3nc4ccccc4o3)cc2)s1` (centres undefined), the GI50 is 14 µM in [1]; 10.6 µM in [2]; 13.3 µM in [3]; 7.58 µM in test [4]; 11.1 µM in test [5]; 6.54 µM in test [6]. Besides, the GI50 is 7.71 µM in test [7], 12 µM in test [8], 9.33 µM in [9] and 12.3 µM in test [10]. The TGI is 48.2 µM in [1]; 28.4 µM in [2]; above 50 µM in test [3]; 15.9 µM in test [4]; 22.4 µM in test [5]; 12.9 µM in [6]. Further, the TGI in test [7] was 14.4 µM; in test [8] it was 27.4 µM; in [9], 20.1 µM; in test [10], above 50 µM.

(Values after PubChem BioAssay (NCI).)
